{"source": "patent US20230021669A1", "about": "“TRICYCLIC COMPOUND, AND PREPARATION METHOD THEREFOR AND MEDICAL USE THEREOF” (The National Institutes of Pharmaceutical R&D Co., Ltd., priority 2019, published 2023)", "key": {"[1]": {"experiment": "Determination of aldehyde capture rate (nonenal as model aldehyde, HPLC quantification)", "settings": "for Capture rate (slope of the capture curve per unit time): higher absolute value of the slope = higher capture rate; for Aldehyde consumption (100%): nonenal 0.025 mM, compound 0.05 mM, room temperature", "protocol": "In the aldehyde capture test disclosed in the present invention, the stable lipid metabolite, nonenal, was used as the model aldehyde to react with the compound of the Example. The specific protocol was as follows.\n0.05 mM of the compounds of the Examples of the present invention were precisely weighed respectively and dissolved in 1.2 mL of a mixed solution (v/v=1:1) of triolein (Aladdin, G105172-5g) and linoleic acid (Aladdin, L100442-25g), respectively. 2.5 mL of PBS (Solarbio) solution containing 20% Captisol® (Aladdin, C125030-25g) was added, and the solution was stirred at room temperature overnight. After the example compound was completely dissolved, 0.025 mM nonenal (Sigma, 255653-5G) was added, and the solution was stirred vigorously at room temperature. 200 μL of the sample was added to 800 μL of acetonitrile (Fisher, A995) at 0, 45, 90, 180, 225 and 465 minutes, respectively. The solution was mixed vigorously by vortex for 2 minutes, and centrifuged at a low speed of 1000 r/min for 3 minutes. The supernatant was transferred to an injection vial. The nonenal in the reaction mixture was analyzed quantitatively by high performance liquid chromatography. The adduct resulted from the example compound of the present invention and nonenal was analyzed qualitatively by high performance liquid chromatography-mass spectrometry.\nIn the developed detection method, the retention time of the model aldehyde nonenal was 2.42 minutes."}, "[2]": {"tested_on": "noninfectious uveitis animal model (lewis rats)", "experiment": "Therapeutic effect in lipopolysaccharide-induced noninfectious uveitis animal model", "type": "in vivo, rat", "protocol": "Female lewis rats were used as the research subjects. Lewis rats (Vital River) were randomly divided into groups (4 animals per group, a total of 8 eyes). The groups are as follows: normal control group, model control group, and example administration group. The inflammation model was established in these groups except for the normal control group.\n(2) Formulation of drug solution: 10 mg of the compound of Example 4 of the present invention was weighed and dissolved in 1 mL of the vehicle stock solution, and the resulting solution was made up to 2 mL with water for injection. The content of each substance is as follows: Na2HPO4.12H2O 0.83%, NaH2PO4.2H2O 0.017%, ρ-cyclodextrin 9.5%, PEG-400 5.0%, active compound 0.5%.\nThe animal model was a noninfectious uveitis animal model established by intraperitoneal injection of lipopolysaccharide (derived from Escherichia coli, 055:B5, Sigma, L2880-100MG, injection dose: 2 mg/kg). At the same time of modeling, drug administration was carried out according to the above grouping situation. The normal control group was administered with normal saline, the model control group was administered with blank vehicle, and the example administration group was administered with the eye drops formulated above. The drug was administered by eye instillation to both eyes of each animal, and the eye instillation dose was 20 μL/eye. After the completion of eye instillation, the eyelids were closed for 20 seconds to prevent the loss of the drug. The administration was repeated at 3, 6 and 23 hours after modeling. […] The ocular inflammation of the animals in each group was examined with a slit lamp microscope (Jiangxi Jiangfeng, LYL-S), and evaluated according to the McDonald-Shadduck scoring system (GB/T 28538-2012).\nThe animals were sacrificed, and the bilateral eyeballs were enucleated. […] Quantitative analysis of total protein in aqueous humor was performed on the supernatant by a BCA protein quantification kit (Beyotime, P0010)."}, "[3]": {"tested_on": "C48/80-induced allergic conjunctivitis (Wistar rats)", "experiment": "Therapeutic effect in C48/80-induced allergic conjunctivitis animal model", "type": "in vivo, rat", "settings": "female Wistar rats, C48/80 on cornea; 10 μL per eye 10 minutes after stimulation; examined 20 minutes after administration", "text": "C48/80 is a polymer formed by the condensation of N-methyl-p-methoxyphenethylamine with formaldehyde, which acts directly on G protein and induces mast cell degranulation. After degranulation, the mast cell releases active substances such as histamine and kinin, which can cause acute type I allergic reactions such as telangiectasia and enhanced permeability. It can cause allergic conjunctivitis if applied topically to the ocular surface.\nFemale Wistar rats were used as the research subjects. Wistar rats (Vital River) were randomly divided into groups (5 animals per group, a total of 10 eyes). The groups are as follows: normal control group, model control group, positive drug group, and example administration group. The inflammation model was established in these groups except for the normal control group. Emedastine Difumarate Eye Drops (Emadine®, Alcon, H20181192) was used as the positive drug. Model establishment, administration and evaluation processes are as follows. […]\nAfter 10 minutes of stimulation, different drug treatments were carried out according to the group settings. […] The clinical score was evaluated individually on the eyes of each animal according to the McDonald-Shadduck scoring system (GB/T 28538-2012)."}}}
{"compound": "CC(C)(O)c1cc2cc3c(cc2cc1N)OCCO3", "note": "[Example 6, 2-(8-amino-2,3-dihydronaphtho[2,3-b][1,4]dioxin-7-yl)propan-2-ol]", "values": [{"measurement": "Capture rate (slope of the capture curve per unit time)", "setting": "[1]; 225 minutes", "result": "−0.07"}, {"measurement": "Aldehyde consumption (100%)", "setting": "[1]; 225 minutes", "result": 16.48, "unit": "%"}, {"measurement": "Capture rate (slope of the capture curve per unit time)", "setting": "[1]; 465 minutes", "result": "−0.05"}, {"measurement": "Aldehyde consumption (100%)", "setting": "[1]; 465 minutes", "result": 22.01, "unit": "%"}]}
{"compound": "CC(C)(O)c1cc2cc3c(cc2cc1N)OCCOCCOCCO3", "note": "[Example 8, 2-(14-amino-2,3,5,6,8,9-hexahydronaphtho[2,3-b][1,4,7,10]tetraoxacyclododecin-13-yl) propan-2-ol]", "values": [{"measurement": "Capture rate (slope of the capture curve per unit time)", "setting": "[1]; 225 minutes", "result": "−0.07"}, {"measurement": "Aldehyde consumption (100%)", "setting": "[1]; 225 minutes", "result": 19.78, "unit": "%"}, {"measurement": "Capture rate (slope of the capture curve per unit time)", "setting": "[1]; 465 minutes", "result": "−0.04"}, {"measurement": "Aldehyde consumption (100%)", "setting": "[1]; 465 minutes", "result": 19.82, "unit": "%"}]}
{"compound": "CC(C)(O)c1nc2cc3oc(N4CCOCC4)nc3cc2cc1N", "note": "[Example 7, 2-(7-amino-2-morpholinooxazolo[4,5-g]quinolin-6-yl)propan-2-ol]", "values": [{"measurement": "Capture rate (slope of the capture curve per unit time)", "setting": "[1]; 225 minutes", "result": "−0.03"}, {"measurement": "Aldehyde consumption (100%)", "setting": "[1]; 225 minutes", "result": 7.12, "unit": "%"}, {"measurement": "Capture rate (slope of the capture curve per unit time)", "setting": "[1]; 465 minutes", "result": "−0.01"}, {"measurement": "Aldehyde consumption (100%)", "setting": "[1]; 465 minutes", "result": 8.34, "unit": "%"}]}
{"compound": "Cc1nc2cc3nc(C(C)(C)O)c(N)cc3cc2o1", "note": "[Example 2, 2-(7-amino-2-methyloxazolo[5,4-g]quinolin-6-yl)propan-2-ol]", "values": [{"measurement": "Capture rate (slope of the capture curve per unit time)", "setting": "[1]; 225 minutes", "result": "−0.06"}, {"measurement": "Aldehyde consumption (100%)", "setting": "[1]; 225 minutes", "result": 11.99, "unit": "%"}, {"measurement": "Capture rate (slope of the capture curve per unit time)", "setting": "[1]; 465 minutes", "result": "−0.03"}, {"measurement": "Aldehyde consumption (100%)", "setting": "[1]; 465 minutes", "result": 12.11, "unit": "%"}]}
{"compound": "CC(C)(O)c1nc2cc3c(cc2cc1N)OCO3", "note": "[Example 1, 2-(7-amino-[1,3]dioxolo[4,5-g]quinolin-6-yl)propan-2-ol]", "values": [{"measurement": "Capture rate (slope of the capture curve per unit time)", "setting": "[1]; 225 minutes", "result": "−0.05"}, {"measurement": "Aldehyde consumption (100%)", "setting": "[1]; 225 minutes", "result": 10.73, "unit": "%"}, {"measurement": "Capture rate (slope of the capture curve per unit time)", "setting": "[1]; 465 minutes", "result": "−0.04"}, {"measurement": "Aldehyde consumption (100%)", "setting": "[1]; 465 minutes", "result": 18.43, "unit": "%"}]}
{"compound": "Nc1cc2cc3c(cc2cc1C1(O)CC1)OCO3", "note": "[Example 9, 1-(7-aminonaphtho[2,3-d][1,3]dioxol-6-yl)cyclopropan-1-ol]", "values": [{"measurement": "Capture rate (slope of the capture curve per unit time)", "setting": "[1]; 225 minutes", "result": "−0.06"}, {"measurement": "Aldehyde consumption (100%)", "setting": "[1]; 225 minutes", "result": 15.43, "unit": "%"}, {"measurement": "Capture rate (slope of the capture curve per unit time)", "setting": "[1]; 465 minutes", "result": "−0.03"}, {"measurement": "Aldehyde consumption (100%)", "setting": "[1]; 465 minutes", "result": 16.60, "unit": "%"}]}
{"compound": "CC(C)(O)c1cc2cc3c(cc2cc1N)OCO3", "note": "[Example 4, 2-(7-aminonaphtho[2,3-d][1,3]dioxol-6-yl)propan-2-ol]", "values": [{"measurement": "Capture rate (slope of the capture curve per unit time)", "setting": "[1]; 225 minutes", "result": "−0.25"}, {"measurement": "Aldehyde consumption (100%)", "setting": "[1]; 225 minutes", "result": 52.65, "unit": "%"}, {"measurement": "Capture rate (slope of the capture curve per unit time)", "setting": "[1]; 465 minutes", "result": "−0.14"}, {"measurement": "Aldehyde consumption (100%)", "setting": "[1]; 465 minutes", "result": 66.62, "unit": "%"}, {"measurement": "Protein concentration in aqueous humor", "setting": "[2]; female lewis rats, LPS 2 mg/kg i.p., 0.5% eye drops 20 μL/eye at 0, 3, 6, 23 h, 24 hours after modeling, BCA, mean ± standard deviation", "result": "840.6 ± 449.7", "unit": "µg/mL"}, {"measurement": "Ocular score (McDonald-Shadduck scoring system)", "setting": "[2]; female lewis rats, LPS 2 mg/kg i.p., 0.5% eye drops 20 μL/eye at 0, 3, 6, 23 h, 24 hours after modeling, mean ± standard deviation", "result": "8.4 ± 2.8"}, {"measurement": "Therapeutic effect in the ocular inflammation animal model (score and aqueous humor protein, in words)", "setting": "[2]; lewis rats, LPS-induced uveitis, eye drops", "result": "showing a therapeutic effect"}, {"measurement": "Therapeutic effect on allergic conjunctivitis (McDonald-Shadduck clinical score, FIG. 2)", "setting": "[3]", "result": "good therapeutic effect"}]}
{"compound": "CC(C)(O)c1nc2cc3nc(N4CCOCC4)oc3cc2cc1N", "note": "[Example 3, 2-(7-amino-2-morpholinooxazolo[5,4-g]quinolin-6-yl)propan-2-ol]", "values": [{"measurement": "Capture rate (slope of the capture curve per unit time)", "setting": "[1]; 225 minutes", "result": "−0.17"}, {"measurement": "Aldehyde consumption (100%)", "setting": "[1]; 225 minutes", "result": 35.38, "unit": "%"}, {"measurement": "Capture rate (slope of the capture curve per unit time)", "setting": "[1]; 465 minutes", "result": "−0.10"}, {"measurement": "Aldehyde consumption (100%)", "setting": "[1]; 465 minutes", "result": 43.67, "unit": "%"}]}
{"compound": "Cn1cnc2cc3cc(N)c(C(C)(C)O)nc3cc21", "note": "[Example 5, 2-(7-amino-3-methyl-3H-imidazo[4,5-g]quinolin-6-yl)propan-2-ol]", "values": [{"measurement": "Capture rate (slope of the capture curve per unit time)", "setting": "[1]; 225 minutes", "result": "−0.08"}, {"measurement": "Aldehyde consumption (100%)", "setting": "[1]; 225 minutes", "result": 20.02, "unit": "%"}, {"measurement": "Capture rate (slope of the capture curve per unit time)", "setting": "[1]; 465 minutes", "result": "−0.08"}, {"measurement": "Aldehyde consumption (100%)", "setting": "[1]; 465 minutes", "result": 36.01, "unit": "%"}]}
